Source: patent US12576155B2, “Senolytic and antiinflammatory prodrugs and methods of use thereof” (priority 2019, dated 2026)

Legend:
Assay type in all cases: cell-based
[1] = system: senescent human fibroblasts; assay: Other reported senolytic compounds in cultured senescent human fibroblasts; conditions: hydroperoxide-, replication-, irradiation- and etoposide-induced senescent cells
Excerpt: (§1) For replication-induced senescence, cells were passaged until they lost the ability to proliferate and became senescent. NBFs were used as senescent cells after approximately 8-9 passages or 12 population doublings. HEFs were used after approximately 35 passages or 50 population doublings. HUVECs were senescent after approximately 18 passages or 24 population doublings.
(§2) For ionizing radiation-induced senescence, MEFs and HEFs were exposed to 10 Gy of ionizing irradiation in an RS 2000 X-ray Biological Irradiator (Rad Source Technologies, Inc.) at a dose rate of 1.205 Gy/min. The day after irradiation, MEFs or HEFs were passaged at a 1:3 dilution and cultured for another three days. Then these cells were plated to carry out further experiments.
For etoposide-induced senescence, MEFs were treated with 2 μM etoposide for 20 hours, and HEFs were treated with 10 μM etoposide for 12-18 hours. […]
(§3) To test the viability of senescent and non-senescent cells treated with SSK1, cells were stained with a mixture of Hoechst 33342 and propidium iodide (PI) (CA1120, Solarbio) to distinguish living and dead cells. […] The plate was incubated at 4° C. for 30 min and observed on a fluorescence microscope or automatic cell imaging system. Viable cells were quantified using a MD Image Xpress Micro XL (Molecular Devices).

senescent cells = assay: Cell viability, SSK1 combined with p38 inhibitors; conditions: SSK1 0.5 μM plus inhibitor
Experimental: To test the viability of senescent and non-senescent cells treated with SSK1, cells were stained with a mixture of Hoechst 33342 and propidium iodide (PI) (CA1120, Solarbio) to distinguish living and dead cells. After treatment with the small molecules, the cell culture medium was removed, and the cells were washed once with PBS. Then, the cells were stained according to the manufacturer's protocol, where the final concentrations of Hoechst 33342 and PI were 5 μg/ml and 2 μg/ml in PBS buffer. The plate was incubated at 4° C. for 30 min and observed on a fluorescence microscope or automatic cell imaging system. Viable cells were quantified using a MD Image Xpress Micro XL (Molecular Devices).

[2] = system: primary mouse fibroblasts and their replication-induced senescent counterparts; assay: Cell viability testing, senescent vs non-senescent primary mouse fibroblasts
Experimental: Mouse embryonic fibroblasts (MEFs) were isolated from E13.5 embryos as described previously (Zhao et al., Cell Stem Cell 23, 31-45 e37([…])). Newborn mouse skin fibroblasts (NBFs) were isolated from the skin of day 1-3 newborn mice. Adult mouse lung fibroblasts were isolated from 2-month-old and 23-month-old mice. Briefly, mouse embryonic tissues, skin and lung were obtained from described donor mice. Then, these tissues were minced with forceps and incubated in 2 mg/ml collagenase IV (Gibco) for 2-4 hours at 37° C. After enzyme treatment, cells were collected by centrifugation and resuspended in high-glucose DMEM (Gibco) supplemented with 10% fetal bovine serum (FBS) and 1% penicillin-streptomycin (Gibco). The three types of mouse primary cells were all cultured in a humidified incubator at 37° C. and 5% CO2.
To avoid replication-induced senescent cells, low-passage proliferative NBFs (<3 passages), MEFs (<3 passages), mouse lung fibroblasts (<3 passages), HEFs (<10 passages), and HUVECs (<6 passages) were used as normal controls. To induce cell quiescence, MEFs were cultured in DMEM without FBS for 2 days.
as §1
as §3, with “cells. After treatment with the small molecules, the cell culture medium was removed, and the cells were washed once with PBS.” for “cells.”

[3] = system: human senescent fibroblasts induced by different stimuli; assay: Cell viability, senescent and non-senescent human embryonic fibroblasts (HEFs); conditions: human senescent cells; panel of FDA-approved drugs
Experimental: Human embryonic skin fibroblasts (HEFs) were obtained as previously described. Briefly, human embryonic skin tissues, obtained from aborted tissue with informed patient consent, were minced with forceps and incubated in 1 mg/ml collagenase IV for 1-2 hours at 37° C. After enzyme treatment, cells were collected by centrifugation and resuspended in HEF medium (Dulbecco's modified Eagle's medium (DMEM, Gibco) containing 10% fetal bovine serum (FBS, Ausbian), 1% GlutaMAX (Gibco), 1% Non-Essential Amino Acids (NEAA, Gibco) and 1% penicillin/streptomycin (Gibco). Cells were plated on 10 cm tissue culture dishes and grown in 10% FBS DMEM.
as §1, §2
(§4) For etoposide-induced senescence, MEFs were treated with 2 μM etoposide for 20 hours, and HEFs were treated with 10 μM etoposide for 12-18 hours. Three days after treatment, cells were sub-cultured at a 1:3 ratio for 72 hours in a fresh medium before further analysis.
as §3

[4] = system: β-galactosidase positive senescent human embryonic fibroblasts (HEFs); assay: CCK-8 cell viability, SSK2 in etoposide-induced senescent HEFs; conditions: increasing doses, 72 h
Experimental: as §4
Cultured cells were washed once with PBS and fixed in β-galactosidase staining fix solution for 15 min at room temperature. Cells were then washed three times with PBS and incubated with β-galactosidase staining solution (Beyotime Biotechnology) for 16-20 hours at 37° C. For 12-well plates, 1 ml of β-galactosidase staining solution was added to each well. The plate was sealed with Parafilm to prevent evaporation of the staining medium. After the overnight incubation, cells were washed with PBS and observed under a bright field microscope. For β-galactosidase staining of frozen sections, the frozen sections were dried at 37° C. for 20-30 min and then fixed in β-galactosidase staining fix solution for 15 min at room temperature. The frozen sections were washed three times with PBS and incubated with β-galactosidase staining solution overnight at 37° C. […]
Cell Counting Kit-8 (CCK-8) analysis was also used to assess cell viability. […] The absorbance was measured at 450 nm wavelength.

[5] = system: primary human chondrocytes isolated from Osteoarthritis patient; assay: Viability / apoptosis of primary human OA chondrocytes (CCK-8, Annexin V flow cytometry)
Experimental: Fibroblasts were digested into single cell suspensions by incubation with 0.25% trypsin-EDTA (Invitrogen) at 37° C. for 3-5 min or with accutase at 37° C. for 10 min. Cells were then stained with FITC annexin V and propidium iodide (PI) according to the manufacturer's protocol (FITC Annexin V Apoptosis Detection Kit I, BD Pharmingen™). For chondrocytes Annexin V/7-AAD analysis, the trypsinized live chondrocytes and floating cells were collected, centrifuged and washed with PBS. Cells were stained with the Annexin V Apoptosis Detection Kit (Biolegend, 640934) according to the manufacturer's instruction. Before the flow cytometric analysis, the precision count beads (Biolegend, 424902) were added to count the absolute live cell numbers. Flow cytometry was performed within one hour on an Aria III (BD Biosciences) or FACSVerse (BD Biosciences). Data were analyzed using FlowJo software (FlowJo LLC).
Cell Counting Kit-8 (CCK-8) analysis was also used to assess cell viability. Senescent and non-senescent cells or chondrocytes were inoculated into 96-well plates and cultured overnight. Then cells were treated with vehicle (0.05% DMSO) or different concentrations of SSK2. After 48 h or 72 h, CCK-8 solution (C0041, Beyotime) was added to each well as 1:10 ratio and inoculated for another 2 h. The absorbance was measured at 450 nm wavelength.

SMILES: CC1(C)CCC(c2ccc(Cl)cc2)=C(CN2CCN(c3ccc(C(=O)NS(=O)(=O)c4ccc(N[C@H](CCN5CCOCC5)CSc5ccccc5)c(S(=O)(=O)C(F)(F)F)c4)cc3)CC2)C1 [ABT263]
- Selective killing of senescent human fibroblasts compared with proliferative cells [1]: selectively killed hydroperoxide-induced senescent human fibroblasts but not replication-induced cells

SMILES: Cc1ccc(-n2nc(C(C)(C)C)cc2NC(=O)Nc2ccc(OCCN3CCOCC3)c3ccccc23)cc1 [Birb796]
- Viable cells, SSK1 combined with p38 MAPK inhibitor (senescent cells): impaired SSK1's ability to specifically kill senescent cells

SMILES: Oc1ccc(-c2nc(-c3ccncc3)c(-c3ccc(F)cc3)[nH]2)cc1 [SB202190]
- Viable cells, SSK1 combined with p38 MAPK inhibitor (senescent cells): impaired SSK1's ability to specifically kill senescent cells

SMILES: Nc1ccn([C@@H]2O[C@H](CO)[C@@H](O)C2(F)F)c(=O)n1 [gemcitabine]
- Selective killing of senescent cells (viable cells) ([2]; increasing doses, senescent vs non-senescent cells): killed both cell types
- Cytotoxicity for senescent cells ([2]; mouse senescent cells, panel of FDA-approved drugs): killed both mouse and human senescent cells effectively and potently
- Cytotoxicity for senescent cells [3]: killed both mouse and human senescent cells effectively and potently

SMILES: O=C(Nc1ccn([C@@H]2O[C@H](CO)C(O)C2(F)F)c(=O)n1)OCc1ccc(O[C@@H]2OC(CO)[C@H](O)C(O)C2O)c([N+](=O)[O-])c1 (stereo partly shown) [SSK2]
- Selective killing of senescent HEFs (viable cells) [4]: efficiently and selectively kill β-galactosidase positive senescent human embryonic fibroblasts (HEFs) in a dose-dependent manner
- Elimination of OA chondrocytes ([5]; FIG. 16: 10 μM, 72 h, FIG. 17: increasing concentrations): efficiently eliminate primary human chondrocytes isolated from Osteoarthritis patient
- Viable human OA chondrocytes with increasing concentrations ([5]; SSK2 treatment for 48 h / 72 h as printed): Dose-dependent elimination of senescent cells

SMILES: C[S+]([O-])c1ccc(-c2nc(-c3ccncc3)c(-c3ccc(F)cc3)[nH]2)cc1 (stereo not shown) [SB203580]
- Viable cells, SSK1 combined with p38 MAPK inhibitor (senescent cells): impaired SSK1's ability to specifically kill senescent cells
